Results on 14 compounds are retold here after patent publication US8389530B2, “Substituted quinazoline compounds” (Fovea Pharmaceuticals, priority 2008, dated 2013).

Series [1] can be described thus: Solubility in aqueous buffer at pH 5 (HPLC/UV). Conditions: acetic acid/KOH buffer pH 5, stirred 24 h at room temperature; for solubility at 24 h: acetic acid/KOH buffer, pH 5, aqueous buffer, thermodynamic from solid. It counts as physicochemical. On the procedure: Solubility of Compounds was determined in aqueous medium using the following procedure.
Two mg of Compound was added to 200 μl buffer (acetic acid/KOH) solution at pH 5. Solution was then stirred for 24 h at room temperature and then centrifuged 10 min at 16,000 rpm. Corresponding supernatants were analyzed by HPLC and UV detection. Calculation of a given Compound concentration was performed by reporting area under the experimental slope onto a calibration slope obtained separately using DMSO-solubilised Compound at different concentrations.

A short description of another series: Colour of compounds. It counts as physicochemical.
Series [2] deals with VEGF-induced blood retinal barrier breakdown. The experiment in a line: Inhibition of vascular leakage in a rat model of VEGF-induced blood-retinal barrier breakdown. It counts as in vivo. Particulars: topical 0.51% (5.1 mg/ml) six times over 27 h after intravitreal VEGF, Evans blue. On the procedure:
We investigated the efficacy of topical administration of compound II of the invention in reducing the retinal leakage in a VEGF-induced blood retinal barrier breakdown in the rat.
Rats were treated by a single intravitreal injection of 5 μl (100 ng) recombinant human VEGF164 (RD Systems) into each eye.
During twenty-seven hours following VEGF injection, 0.51% test compound II of the Invention (5.1 mg/ml buffer pH 5 with 30% cyclodextrin) and control without compound of the Invention were administered six times by topical administration (10 μl) in eyes of sixteen rats.
Twenty-seven hours later after the VEGF challenge, Evans blue dye (45 mg/kg) was injected intravenously and the dye was allowed to circulate during two hours.
Then, each rat was infused with 0.05M citrate buffer pH 3.5 (37° C.) for 2 minutes to allow clearance of the dye. Immediately after said perfusion, both eyes were enucleated and Evans blue dye was extracted by incubating each retina in formamide (Qaum et al Invest. Ophthalmol. Vis. Sci. 2001, Vol 42, No 10). Afterward, the absorbance was measured with a spectrophotometer at 620 nm.
Breakdown of blood-retinal barrier was proportional to the concentration of Evans blue in the retina normalized by Evans blue concentrations in the plasma.

Series [3] has the same test system. The experiment in a line: Inhibition of vascular leakage in a rabbit model of VEGF-induced blood-retinal barrier breakdown. It counts as in vivo. Conditions: topical 3% (30 mg/ml) 4 times daily for four days, 48 h after intravitreal VEGF, ocular fluorophotometry. How it is done: Intravitreal injection of VEGF in the rabbit eye produces massive retinal vascular leakage (Edelman and Lutz, 2003, Invest. Ophthalmol. Vis. Sci. 2003; 44:ARVO e-abstract No. 328). Based on said animal model, we investigated the efficacy of topical administration of compound 7 of the invention in reducing the retinal leakage in a VEGF-induced blood retinal barrier breakdown in the rabbit. During four days, 3% test compound 7 (30 mg/ml, 10% PEG 400, 87% labrafil) or control items without compound of the Invention were administered 4 times daily by topical administration (50 μl) in the right eye of five rabbits. On day two, animals received a single intravitreal injection of 50 μl (500 ng) recombinant human VEGF 165 (RD systems) into right eye. Forty-seven hours after the VEGF challenge (day four), fluorescein was injected via the marginal ear vein and circulate during one hour. Breakdown of the blood-retinal barrier was evaluated 48 h after VEGF challenge by measuring fluorescein contents into the vitreoretinal compartment using non-invasive scanning ocular fluorophotometry.

A further series concerns Src tyrosine kinase. Particulars: in vivo; cited from earlier work.

Values after ≈ are worked out from the molar mass of the structure shown. Read-outs that look alike come from different tables or passages of the source.

The term solubility denotes the concentration that dissolves in the medium under given conditions. Turning to `Oc1ccc(Cl)c(-c2ccc3nc(Nc4ccc(OCCN5CCCCCC5)cc4)ncc3c2)c1` [compound 16, 3-{2-[4-(2-Azepan-1-yl-ethoxy)-phenylamino]-quinazolin-6-yl}-4-chloro-phenol], in series [1], the “Solubility (pH 5) in %” value came to 0.05% and the solubility at 24 h came to 500 µg/mL (≈ 1020 µM). In the series “Colour of compounds”, the Colour entry is reported as “Pale yellow”.

Turning to `Cc1cccc(C)c1-c1ccc2nc(Nc3ccc(OCC(=O)N4CC[C@@H](N(C)C)C4)cc3)ncc2c1` [compound 14, 1-((R)-3-Dimethylamino-pyrrolidin-1-yl)-2-{4-[6-(2,6-dimethyl-phenyl)-quinazolin-2-ylamino]-phenoxy}-ethanone], in series [1], the “Solubility (pH 5) in %” value was 0.01% and the solubility at 24 h turned out to be 140 µg/mL (≈ 282 µM). Besides, in “Colour of compounds”, the Colour entry is listed as “Pale yellow”.

`Oc1ccc(Cl)c(-c2ccc3nc(Nc4ccc(OCCN5CCCC5)cc4)ncc3c2)c1` [7 base form, 4-Chloro-3-{2-[4-(2-pyrrolidin-1-yl-ethoxy)-phenylamino]-quinazolin-6-yl}-phenol]: in series [1], the “Solubility (pH 5) in %” value is on record as 0.03% and the concentration in solution (solubility at 24 h) was 340 µg/mL (≈ 738 µM). Moreover, in the series “Colour of compounds”, the Colour entry is given as “Yellow”.

With `Cc1cc(-c2cc(O)ccc2Cl)cc2cnc(Nc3ccc(OCCN4CCCC4)cc3)nc12.Cl` [Compound 18, 1-(2-{4-[6-(2-Chloro-5-hydroxy-phenyl)-8-methyl-quinazolin-2-ylamino]-phenoxy}-ethyl)-pyrrolidinium; chloride], in series [1], the “Solubility (pH 5) in %” value was 0.67% and the solubility at 24 h turned out to be 6700 µg/mL. Also, the Colour entry in the series “Colour of compounds” was “Pale yellow”.

Consider `CN(C)[C@@H]1CCN(C(=O)COc2ccc(Nc3ncc4cc(-c5cc(O)ccc5Cl)ccc4n3)cc2)C1` [13 base form], for which, in series [1], the “Solubility (pH 5) in %” value turned out to be 0.03% and the “Solubility (pH 5) in mg/ml” value is 0.29 mg/ml. Besides, the Colour result in “Colour of compounds” is “Pale green”.

In the case of `Cc1cccc(C)c1-c1ccc2nc(Nc3ccc(N4CCN(CCN5CCCC5)C4=O)cc3)ncc2c1` [9 Chlorhydrate, 1-{4-[6-(2,6-Dimethyl-phenyl)-quinazolin-2-ylamino]-phenyl}-3-(2-pyrrolidin-1-yl-ethyl)-imidazolidin-2-one], in series [1], the “Solubility (pH 5) in %” value worked out at 0.35% and the solubility at 24 h was determined as 3500 µg/mL. Moreover, in the series “Colour of compounds”, the Colour entry is “Pale yellow”.

Take `O=C1N(CCN2CCCC2)CCN1c1ccc(Nc2ncc3cc(-c4cc(O)ccc4Cl)ccc3n2)cc1` [12 Chlorhydrate, 1-{4-[6-(2-Chloro-5-hydroxy-phenyl)-quinazolin-2-ylamino]-phenyl}-3-(2-pyrrolidin-1-yl-ethyl)-imidazolidin-2-one]: in series [1], the “Solubility (pH 5) in %” value came out at 0.45% and the solubility at 24 h was determined as 4500 µg/mL. Also, the Colour entry in the series “Colour of compounds” is on record as “Pale yellow”.

`Cc1cccc(C)c1-c1ccc2nc(Nc3ccc(N4CCN(C(=O)c5ccncc5)CC4)cc3)ncc2c1` [compound 11, (4-{4-[6-(2,6-Dimethyl-phenyl)-quinazolin-2-ylamino]-phenyl}-piperazin-1-yl)-pyridin-4-yl-methanone]: in series [2], the “reduction of vascular leakage compared to control” value amounted to 56%.

Consider `Cc1cccc(C)c1-c1ccc2nc(Nc3ccc(N4CCNCC4)cc3)ncc2c1` [compound 17, [6-(2,6-Dimethyl-phenyl)-quinazolin-2-yl]-(4-piperazin-1-yl-phenyl)-amine], for which, in series [1], the “Solubility (pH 5) in %” value was found to be 0.63% and the concentration in solution (solubility at 24 h) came to 6300 µg/mL (≈ 15400 µM). In addition, the Colour result in the series “Colour of compounds” is listed as “brown”.

As for `Cc1cccc(C)c1-c1ccc2nc(Nc3ccc(OCCN4CCC[C@@H]4C(=O)O)cc3)ncc2c1` [compound 8, (R)-1-(2-{4-[6-(2,6-Dimethyl-phenyl)-quinazolin-2-ylamino]-phenoxy}-ethyl)-pyrrolidine-2-carboxylic acid], in series [1] (listed as 8 base form), the “Solubility (pH 5) in %” value stood at 0.04% and the “Solubility (pH 5) in mg/ml” value is listed as 0.4 mg/ml. In addition, the Colour result in “Colour of compounds” (listed as 8 base form) is listed as “Orange”.

On to `Cc1cccc(C)c1-c1ccc2nc(Nc3ccc(OCCN4CCC[C@@H]4C(=O)O)cc3)ncc2c1` [8 Chlorhydrate, (R)-1-(2-{4-[6-(2,6-Dimethyl-phenyl)-quinazolin-2-ylamino]-phenoxy}-ethyl)-pyrrolidine-2-carboxylic acid], for which, in series [1], the “Solubility (pH 5) in %” value is 1% and the “Solubility (pH 5) in mg/ml” value is 10 mg/ml. Further, the Colour result in the series “Colour of compounds” is recorded as “Pale yellow”.

As for `Cc1cccc(C)c1-c1ccc2nc(Nc3ccc(OCCN4CCCC4)cc3)ncc2c1` [6 Chlorhydrate, [6-(2,6-Dimethyl-phenyl)-quinazolin-2-yl]-[4-(2-pyrrolidin-1-yl-ethoxy)-phenyl]-amine], in series [1], the “Solubility (pH 5) in %” value stood at 0.09% and the solubility at 24 h was determined as 900 µg/mL. Moreover, the Colour result in the series “Colour of compounds” was “Pale yellow”.

For `Cl.Oc1ccc(Cl)c(-c2ccc3nc(Nc4ccc(OCCN5CCCC5)cc4)ncc3c2)c1` [compound 7, 4-Chloro-3-{2-[4-(2-pyrrolidin-1-yl-ethoxy)-phenylamino]-quinazolin-6-yl}-phenol; hydrochloride], in series [1], the “Solubility (pH 5) in %” value was determined as 0.19% and the solubility at 24 h worked out at 1900 µg/mL. Further, the Colour entry in “Colour of compounds” is recorded as “Pale yellow”. The “reduction of vascular leakage compared to control” value in series [3] was 41%.

For `Cc1ccc(-c2nn(C(C)(C)C)c3ncnc(N)c23)cc1` [PP1], in the series on Src tyrosine kinase, the “breakdown of the brain-blood barrier (BBB)” value is given as “decrease breakdown of the brain-blood barrier (BBB)”, the “expression of VEGF” value is “reduce expression of VEGF” and the oedema result is “decrease oedema”.
